Experimental data published in paper PMC2882332, “Species Used for Drug Testing Reveal Different Inhibition Susceptibility for 17beta-Hydroxysteroid Dehydrogenase Type 1” (PLoS ONE, 2010).

The compounds below were run against T1, marmoset 17β-HSD 1 (Callithrix jacchus, UniProt Q9GME2) (assay: In vitro enzymatic activity, recombinant marmoset 17β-HSD 1). Conditions: not given.
T1 sequence (Q9GME2 1-314): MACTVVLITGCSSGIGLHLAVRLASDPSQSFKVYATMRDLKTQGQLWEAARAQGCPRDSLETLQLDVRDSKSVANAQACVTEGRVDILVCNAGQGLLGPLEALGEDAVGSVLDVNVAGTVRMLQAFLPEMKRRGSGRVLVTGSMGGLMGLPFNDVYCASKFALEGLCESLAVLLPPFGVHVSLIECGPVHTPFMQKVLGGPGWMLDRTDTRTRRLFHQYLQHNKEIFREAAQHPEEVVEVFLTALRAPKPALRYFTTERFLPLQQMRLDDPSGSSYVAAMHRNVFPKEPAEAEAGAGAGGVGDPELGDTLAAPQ
Assay type: biochemical
From the text: Full length cDNAs of several 17β-HSDs type 1 originating from different species were cloned either into the pQE30 vector (human 17β-HSD 1, coding for acc. no. NP_000404) for expression as His-Tag protein or into a modified pGex-2T vector [63] (mouse 17β-HSD 1, acc. no. NP_034605; rat 17β-HSD 1, acc. no. NP_036983; marmoset 17β-HSD 1, acc. no. AAG01115; porcine 17β-HSD 1, acc. no. NP_001121944) for expression as GST-fusion proteins. The marmoset 17β-HSD 1 enzyme sequence was updated by the missing N-terminal part (AF272013) and the new porcine sequence was submitted to GenBank (NP_001121944). Human 17β-HSDs 2, 4, 5 (AKR1C3, the latter kindly provided by Dr. T. Penning) and 7 were all cloned into the modified pGEX-2T vector. For 17β-HSD 4 only the SDR-domain converting the steroids was subcloned. Plasmids were transformed into E.coli BL21 DE3 Codon Plus RP (Stratagene) and enzyme expression was induced by 0.5 mM IPTG. After 4h incubation at 37°C with continuous shaking bacteria were pelleted by centrifugation at 10.000×g. Pellets were stored until use at −20°C.
The bacteria containing recombinant enzymes were resuspended in PBS and enzymatic assays were performed in 100 mM sodium phosphate buffer at pH 6.6 for the reductive reaction and at pH 7.7 for the oxidative reaction. […] All substrates were purchased from NEN/Perkin Elmer. The cofactors NADPH (Sigma; for reductive reactions) and NAD^+ (Serva, for oxidative reactions) were used at final concentrations of 0.5 mg/ml. […] The incubation at 37°C was stopped with 0.21 M ascorbic acid in methanol∶acetic acid 99∶1 (v∶v) after the time needed to convert approximately 30% of the substrate in a control assay with 1% DMSO, without inhibitor candidates. […] The solvent used was acetonitrile∶water (43∶57, v∶v) at a flow rate of 1 ml/min. Radioactivity was detected by online-scintillation counting (Berthold LB506D) after mixing with ReadyFlowIII (Beckman). Conversion was calculated from integration of substrate and product peaks. […] All assays were run in duplicates of two independent experiments and mean values are reported. The IC50 values were determined by the One Ligand Binding model of SigmaPlot kinetics module.

Compound | IC50 [nM]
Cc1cnc(NC(=O)CC[C@@H]2CC(=O)[C@@]3(C)CC[C@@H]4c5ccc(O)cc5CC[C@H]4[C@H]23)s1 [Compound 3] | 95.3

Same assay, conditions: marmoset 17β-HSD 1; 2 µM compound; 15 nM 3H-estrone; read-out: Observed % inhibition

Compound | inhibition at 2 µM [%]
C[C@]12CC[C@@H]3c4ccc(O)cc4CC[C@H]3[C@@H]1[C@@H](CNC(=O)c1ccc(F)cc1)CC2=O [Compound 1] | 30.6
C[C@]12CC[C@@H]3c4ccc(O)cc4CC[C@H]3[C@@H]1[C@@H](CCCC(=O)N1CCOCC1)CC2=O [Compound 2] | 60.3
Cc1cnc(NC(=O)CC[C@@H]2CC(=O)[C@@]3(C)CC[C@@H]4c5ccc(O)cc5CC[C@H]4[C@H]23)s1 [Compound 3] | 98.5
COc1ccc(-c2cn(CCC[C@H]3CC(=O)[C@@]4(C)CC[C@@H]5c6ccc(O)cc6CC[C@H]5[C@H]34)nn2)cc1 [Compound 4] | 85.2
C[C@]12CC[C@@H]3c4ccc(O)cc4CC[C@H]3[C@@H]1C[C@H](CC(=O)NCc1cccnc1)C2=O [Compound 5, reference compound] | 45.6
